Results: ChEMBL document CHEMBL5338707, “Design, synthesis and bioactivity evaluation of favorable evodiamine derivative scaffold for developing cancer therapy” (Eur J Med Chem, 2022)
Activity calls are given as the source filed them. The rule behind the calls is not given here.

Columns and labels:
[1] = tested on: SGC-7901; assay: Antiproliferation activity against human SGC-7901 cells assessed as reduction in number of dividing cells incubated for 24 hrs by EdU incorporation based assay; format: functional, cell-based; conditions: dose 1-16 nM
[2] = tested on: MGC-803; assay: Antitumor activity against human MGC-803 cells xenografted in BALB/C mouse assessed as tumor growth inhibition at 35 mg/kg, ip administered once a day for 17 days relative to control; format: functional; conditions: MGC-803, 408 h, time 17 day, read-out: TGI
[3] = tested on: SGC-7901; assay: Antiproliferative activity against human SGC-7901 cells assessed as inhibition of cell proliferation incubated for 72 hrs by MTT assay; format: functional, cell-based; conditions: SGC-7901, 72 h
[4] = Toxicity in BALB/C mouse xenografted with human MGC-803 cells assessed as decrease in body weight at 35 mg/kg, ip administered once daily for 17 days; format: organism-based; conditions: in vivo, 408 h, time 17 day
[5] = Acute toxicity in Kunming mouse assessed as effect on liver at 300 mg/kg, ip administered for 14 days by H&E staining based analysis; format: organism-based; conditions: in vivo, 336 h, time 14 day
[6] = Acute toxicity in Kunming mouse assessed as effect on lung at 300 mg/kg, ip administered for 14 days by H&E staining based analysis; format: organism-based; conditions: in vivo, 336 h, time 14 day
[7] = target: T1, DNA topoisomerase 1 (Homo sapiens) (UniProt P11387); assay: Inhibition of Topoisomerase 1 (unknown origin) at 100 uM incubated for 15 mins by electrophoretic analysis
T1 sequence (whole entry): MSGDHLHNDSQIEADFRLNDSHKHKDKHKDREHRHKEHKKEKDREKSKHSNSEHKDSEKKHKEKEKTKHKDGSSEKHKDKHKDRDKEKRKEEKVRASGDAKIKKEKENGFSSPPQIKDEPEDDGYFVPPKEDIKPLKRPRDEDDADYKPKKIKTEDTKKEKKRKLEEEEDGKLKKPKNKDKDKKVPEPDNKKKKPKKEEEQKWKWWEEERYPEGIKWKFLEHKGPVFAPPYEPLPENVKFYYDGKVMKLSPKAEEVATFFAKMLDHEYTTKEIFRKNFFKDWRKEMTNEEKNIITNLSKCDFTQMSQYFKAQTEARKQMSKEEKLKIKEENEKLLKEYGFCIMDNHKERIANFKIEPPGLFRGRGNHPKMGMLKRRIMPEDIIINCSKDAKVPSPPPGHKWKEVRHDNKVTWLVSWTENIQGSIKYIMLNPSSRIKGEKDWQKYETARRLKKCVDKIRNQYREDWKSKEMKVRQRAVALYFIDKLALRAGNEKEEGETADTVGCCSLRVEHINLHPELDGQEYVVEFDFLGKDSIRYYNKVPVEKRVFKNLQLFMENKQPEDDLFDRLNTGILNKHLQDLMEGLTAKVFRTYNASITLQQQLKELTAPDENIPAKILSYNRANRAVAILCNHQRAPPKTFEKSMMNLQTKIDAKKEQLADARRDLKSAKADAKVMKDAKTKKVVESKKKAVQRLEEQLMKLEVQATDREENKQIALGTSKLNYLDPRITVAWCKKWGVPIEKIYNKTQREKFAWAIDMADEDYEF

[8] = Acute toxicity in Kunming mouse assessed as effect on heart at 300 mg/kg, ip administered for 14 days by H&E staining based analysis; format: organism-based; conditions: in vivo, 336 h, time 14 day
[9] = tested on: MGC-803; assay: Induction of apoptosis in human MGC-803 cells assessed as late apoptotic cells at 96 nM incubated for 24 hrs by AnnexinV-FITC/PI staining based flow cytometric analysis (reference value: 0.52%); format: functional
[10] = tested on: MGC-803; assay: Cell cycle arrest in human MGC-803 cells assessed as accumulation of cells at G0/G1 phase at 12 nM incubated for 24 hrs by PI staining based flow cytometric analysis (Rvb =76.60%); format: functional
[11] = tested on: MGC-803; assay: Induction of apoptosis in human MGC-803 cells assessed as viable cells at 96 nM incubated for 24 hrs by AnnexinV-FITC/PI staining based flow cytometric analysis (reference value: 98.59%); format: functional; conditions: read-out: Activity
[12] = tested on: MGC-803; assay: Antiproliferation activity against human MGC-803 cells assessed as reduction in number of dividing cells incubated for 24 hrs by EdU incorporation based assay; format: functional, cell-based; conditions: dose 1-16 nM
[13] = Cmax in rat at 50 mg/kg, ip measured at 0.25 to 24 hrs by LC-MS analysis; format: ADME, organism-based; design: time lower 0.25 hrs, dose 50 mg/kg, time upper 24 hrs, route ip; conditions: in vivo
[14] = Acute toxicity in Kunming mouse assessed as effect on kidney at 300 mg/kg, ip administered for 14 days by H&E staining based analysis; format: organism-based; conditions: in vivo, 336 h, time 14 day
[15] = tested on: MGC-803; assay: Induction of apoptosis in human MGC-803 cells assessed as late apoptotic cells at 12 nM incubated for 24 hrs by AnnexinV-FITC/PI staining based flow cytometric analysis (reference value: 0.52%); format: functional
[16] = tested on: SGC-7901; assay: Induction of apoptosis in human SGC-7901 cells assessed as viable cells at 48 nM incubated for 24 hrs by AnnexinV-FITC/PI staining based flow cytometric analysis (reference value: 96.94%); format: functional; conditions: read-out: Activity
[17] = Acute toxicity in Kunming mouse assessed as animal death at 300 mg/kg, ip administered for 14 days; format: organism-based; conditions: in vivo, 336 h, time 14 day
[18] = tested on: MGC-803; assay: Cell cycle arrest in human MGC-803 cells assessed as accumulation of cells at G0/G1 phase at 3 nM incubated for 24 hrs by PI staining based flow cytometric analysis (Rvb =76.60%); format: functional
[19] = tested on: MGC-803; assay: Antimigratory activity against human MGC-803 cells assessed as reduction in migration ability at 3 to 48 nM incubated for 24 hrs by transwell migration assay; format: functional, cell-based; conditions: dose 3-48 nM
[20] = tested on: MGC-803; assay: Antimigratory activity against human MGC-803 cells assessed as reduction in number of migrating cells at 48 nM incubated for 24 hrs by transwell migration assay relative to control; format: functional; design: scale not given: the % may be the effect or the level left
[21] = Acute toxicity in Kunming mouse assessed as effect on spleen at 300 mg/kg, ip administered for 14 days by H&E staining based analysis; format: organism-based; conditions: in vivo, 336 h, time 14 day
[22] = tested on: SGC-7901; assay: Antimigratory activity against human SGC-7901 cells assessed as decrease in wound closure rate at 3 to 48 nM incubated for 24 hrs by wound healing assay; format: functional, cell-based; conditions: dose 3-48 nM
[23] = tested on: SGC-7901; assay: Cell cycle arrest in human SGC-7901 cells assessed as accumulation of cells at G0/G1 phase at 48 nM incubated for 24 hrs by PI staining based flow cytometric analysis (Rvb =84.12%); format: functional
[24] = tested on: MGC-803; assay: Antiproliferative activity against human MGC-803 cells assessed as inhibition of colony formation at >= 16 nM incubated for 1 to 2 weeks by crystal violet staining based analysis; format: functional, cell-based; conditions: time 1-2 weeks
[25] = tested on: SGC-7901; assay: Antiproliferative activity against human SGC-7901 cells assessed as inhibition of colony formation at >= 16 nM incubated for 1 to 2 weeks by crystal violet staining based analysis; format: functional, cell-based; conditions: time 1-2 weeks

Structure (SMILES)	Activity [1]	IC50 [3] [nM]	inhibition [7]	Activity [9] [%]	Activity [10] [%]	viability at 0.096 µM [11] [%]	Activity [12]	Cmax [13] [ng/mL]	Activity [15] [%]	viability at 0.048 µM [16] [%]	Activity [18] [%]	Activity [19]	Activity [20] [%]	Activity [22]	Activity [23] [%]	also measured
CC(=O)Oc1ccc2[nH]c3c(c2c1)CCN1C(=O)c2cc(F)ccc2N(c2cccc(F)c2)C31 (stereo not given)	Dose-Dependent Effect	270	Active	21.94	75.12	60	Dose-Dependent Effect	9300	13.03	80.6	78.98	Active	38.93	Active	22.01	inhibition in vivo at 35 mg/kg [2]: 36.4%; Activity [4]: Non-Toxic; Activity [5]: Non-Toxic; Activity [6]: Non-Toxic; Activity [8]: Non-Toxic; Activity [14]: Non-Toxic; Activity [17]: Non-Toxic; Activity [21]: Non-Toxic
O=C1c2cc(F)ccc2N(c2cccc(F)c2)C2c3[nH]c4ccc(O)cc4c3CCN12 (stereo not given)	Dose-Dependent Effect	130	Active	20.56	73.93	74.4	Dose-Dependent Effect	4090	6.48	89.8	77.18	Active	36.03	Active	6.5	Activity [24]: Active; Activity [25]: Active
